# According to US20230114241A1, “METHODS OF TREATING EPILEPSY USING THE SAME” (Trevena, Inc., priority 2019, published 2023):
# Molecular target: human sphingosine-1-phosphate receptor 1 (S1P1) (Homo sapiens, UniProt P21453)
# Assay: Inhibition of cAMP production (HTRF cAMP HiRange), S1P1 CHO-K1 cells
# Assay type: cell-based
# Details: inhibition of cAMP production, S1P1; read-out: hS1P1 CAMP pEC50 (converted)
# How it was run: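 Intracellular cAMP changes read by TR-FRET (HTRF HiRange, 1 h room temperature) after 30 min compound exposure at 37 °C. Cells: overnight-plated CHO-K1 stably expressing tagged human S1P1 with EA-β-arrestin2. Responses normalized to fingolimod.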
# Sequence of human sphingosine-1-phosphate receptor 1 (S1P1) (P21453 whole entry): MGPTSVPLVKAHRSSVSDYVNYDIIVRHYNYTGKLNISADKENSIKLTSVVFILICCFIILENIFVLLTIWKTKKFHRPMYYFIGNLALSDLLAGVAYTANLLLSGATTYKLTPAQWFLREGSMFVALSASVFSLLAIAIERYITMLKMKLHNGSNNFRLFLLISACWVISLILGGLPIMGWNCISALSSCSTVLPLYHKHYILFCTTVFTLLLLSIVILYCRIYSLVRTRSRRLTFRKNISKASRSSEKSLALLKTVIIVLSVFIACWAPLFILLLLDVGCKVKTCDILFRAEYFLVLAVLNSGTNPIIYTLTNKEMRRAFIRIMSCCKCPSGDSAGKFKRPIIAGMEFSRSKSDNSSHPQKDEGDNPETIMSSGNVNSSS
row,EC50 [nM],SMILES
1,< 316,"N#Cc1cc(-c2nc(-c3ccc4sc(N)nc4c3)no2)ccc1NCC1CC1 [Compound 440, 5-(3-(2-aminobenzo[d]thiazol-5-yl)-1,2,4-oxadiazol-5-yl)-2-((cyclopropylmethyl)amino)benzonitrile]"
2,< 316,"CC(C)Nc1ccc(-c2ccc(-c3ccc4c(c3)nnn4C(C)C)cc2)cc1C#N [Compound 507, 4′-(1-isopropyl-1H-benzo[d][1,2,3]triazol-5-yl)-4-(isopropylamino)-[1,1′-biphenyl]-3-carbonitrile]"
3,< 316,"Cc1ccsc1-c1nc(-c2ccc3c(c2)nnn3C(C)(C)CO)no1 [Compound 611, 2-methyl-2-(5-(5-(3-methylthiophen-2-yl)-1,2,4-oxadiazol-3-yl)-1H-benzo[d] [1,2,3]triazol-1-yl)propan-1-ol]"
4,> 316,"CC(C)(O)Cn1nnc2cc(-c3nc(-c4cocn4)no3)ccc21 [Compound 570, 2-methyl-1-{5-[3-(1,3-oxazol-4-yl)-1,2,4-oxadiazol-5-yl]-1H-1,2,3-benzotriazol-1-yl}propan-2-ol]"
5,< 316,"COc1ccncc1-c1nc(-c2ccc3c(c2)nnn3C(C)C)no1 [Compound 605, 3-(1-isopropyl-1H-benzo[d][1,2,3]triazol-5-yl)-5-(4-methoxy-pyridin-3-yl)-1,2,4-oxadiazole]"
6,> 316,"CC(C)Cn1nnc2cc(-c3nc4ccncc4o3)ccc21 [Compound 504, 2-(1-isobutyl-1H-benzo[d][1,2,3]triazol-5-yl)oxazolo[5,4-c]pyridine]"
7,< 316,"COc1cccnc1-c1nc(-c2ccc3c(c2)nnn3C(C)C)no1 [Compound 612, 3-(1-isopropyl-1H-benzo[d][1,2,3]triazol-5-yl)-5-(3-methoxy-pyridin-2-yl)-1,2,4-oxadiazole]"

# Same assay, conditions: inhibition of cAMP production; potency; read-out: hS1P1 CAMP pEC50 (converted)
row,EC50 [nM],SMILES
1,> 316,"Cc1ncc(-c2nc(-c3ccc4c(c3)nnn4C(C)C)no2)nc1C [Compound 133, 5-(5,6-dimethylpyrazin-2-yl)-3-(1-isopropyl-1H-benzo[d][1,2,3]triazol-5-yl)-1,2,4-oxadiazole]"
2,> 316,"CCCn1nnc2cc(-c3nc(-c4ccncc4)no3)ccc21 [Compound 205, 1-propyl-5-[3-(pyridin-4-yl)-1,2,4-oxadiazol-5-yl]-1H-1,2,3-benzotriazole]"
3,> 316,"COc1ccc(-c2nc(-c3ccc4c(c3)nnn4C3CCCC3)no2)cc1OC [Compound 275, 3-(1-cyclopentyl-1H-benzo[d][1,2,3]triazol-5-yl)-5-(3,4-dimethoxyphenyl)-1,2,4-oxadiazole]"
4,> 316,"CCC1(CC)CC(=O)c2cc(-c3nnc(-c4cccnc4)o3)ccc2O1 [Compound 28, 2,2-diethyl-6-(5-(pyridin-3-yl)-1,3,4-oxadiazol-2-yl)chroman-4-one]"
5,> 316,"OCCn1nnc2cc(-c3noc(-c4ccccc4Br)n3)ccc21 [Compound 238, 2-(5-(5-(2-bromo-phenyl)-1,2,4-oxadiazol-3-yl)-1H-benzo[d][1,2,3]triazol-1-yl)ethanol]"
6,> 316,"COc1ccc(-c2noc(-c3ccc4c(c3)nnn4C3CCCC3)n2)cc1C(F)(F)F [Compound 197, 1-cyclopentyl-5-{3-[4-methoxy-3-(trifluoromethyl)phenyl]-1,2,4-oxadiazol-5-yl}-1H-1,2,3-benzotriazole]"
7,> 316,"CC(C)n1nnc2cc(-c3nc(-c4ccc(OCc5ccccc5)cc4)no3)ccc21 [Compound 53, 5-{3-[4-(benzyloxy)phenyl]-1,2,4-oxadiazol-5-yl}-1-(propan-2-yl)-1H-1,2,3-benzotriazole]"
8,< 316,"CCC1(CC)CC(=O)c2cc(-c3nc(-c4ccncc4OC)no3)ccc2O1 [Compound 212, 2,2-diethyl-6-(3-(3-methoxypyridin-4-yl)-1,2,4-oxadiazol-5-yl)chroman-4-one]"
9,< 316,"COc1ccccc1-c1coc(-c2ccc3c(c2)nnn3C(C)C)n1 [Compound 277, 5-[4-(2-methoxy-phenyl)-1,3-oxazol-2-yl]-1-(propan-2-yl)-1H-1,2,3-benzotriazole]"
10,< 316,"CC(C)n1nnc2cc(-c3nc(-c4ccccc4OC(F)(F)F)no3)ccc21 [Compound 132, 5-(1-isopropyl-1H-benzo[d][1,2,3]triazol-5-yl)-3-(2-(trifluoro-methoxy)phenyl)-1,2,4-oxadiazole]"
11,< 316,"C=CCNc1ccc(-c2nc(-c3ccc4[nH]ccc4c3)no2)cc1C#N [Compound 208, 5-(3-(1H-indol-5-yl)-1,2,4-oxadiazol-5-yl)-2-(allylamino) benzonitrile]"
12,> 316,"CC(C)n1nnc2cc(C(=O)Nc3noc4ccccc34)ccc21 [Compound 181, N-(benzo[d]isoxazol-3-yl)-1-isopropyl-1H-benzo[d][1,2,3]triazole-5-carboxamide]"
13,> 316,"CCC1(CC)CC(=O)c2cc(-c3nnc(-c4ccc5c(c4)nnn5C(C)C)s3)ccc2O1 [Compound 67, 2,2-diethyl-6-(5-(1-isopropyl-1H-benzo[d][1,2,3]triazol-5-yl)-1,3,4-thiadiazol-2-yl)chroman-4-one]"
14,> 316,"COc1cccc(-c2nc(-c3ccc4c(c3)nnn4C(C)C)no2)c1 [Compound 299, 3-(1-isopropylbenzo-triazol-5-yl)-5-(3-methoxyphenyl)-1,2,4-oxadiazole]"
15,> 316,"CC1(C)CC(=O)c2cc(-c3nc(-c4cccnc4)no3)ccc2O1 [Compound 274, 2,2-dimethyl-6-[3-(pyridin-3-yl)-1,2,4-oxadiazol-5-yl]-3,4-dihydro-2H-1-benzopyran-4-one]"
16,> 316,"CC(C)n1nnc2cc(-c3nc(-c4ccc5nncn5c4)no3)ccc21 [Compound 128, 1-(propan-2-yl)-5-(3-{[1,2,4]triazolo[4,3-a]pyridin-6-yl}-1,2,4-oxadiazol-5-yl)-1H-1,2,3-benzotriazole]"
17,> 316,"COc1cncc(-c2nc(-c3ccc4c(c3)nnn4C(C)C)no2)c1 [Compound 272, 3-(1-isopropyl-1H-benzo[d][1,2,3]triazol-5-yl)-5-(5-methoxy-pyridin-3-yl)-1,2,4-oxadiazole]"
18,> 316,"CC(C)n1nnc2cc(-c3noc(C4CCC(F)(F)CC4)n3)ccc21 [Compound 125, 5-[5-(4,4-difluoro-cyclohexyl)-1,2,4-oxadiazol-3-yl]-1-(propan-2-yl)-1H-1,2,3-benzotriazole]"
19,> 316,"Cc1cc(C)cc(-c2noc(-c3ccc4c(c3)nnn4C3CCCCC3)n2)c1 [Compound 158, 1-cyclohexyl-5-[3-(3,5-dimethylphenyl)-1,2,4-oxadiazol-5-yl]-1H-1,2,3-benzotriazole]"
20,> 316,"COc1cccnc1-c1noc(-c2ccc3c(c2)nnn3C2CCCC2)n1 [Compound 203, 1-cyclopentyl-5-[3-(3-methoxy-pyridin-2-yl)-1,2,4-oxadiazol-5-yl]-1H-1,2,3-benzotriazole]"
